From the NIST ThermoML archive (doi:10.1016/j.jct.2014.02.009)
± gives the expanded uncertainty stated by the source.

Conditions: 100 kPa, Liquid; for viscosity: Falling or rolling sphere viscometry; for speed of sound: Sing-around technique in a fixed-path interferometer; for mass density: Vibrating tube method

Compound	viscosity (293.15 K) [mPa·s]	speed of sound (293.15 K) [m/s]	mass density (293.15 K) [kg/m3]	viscosity (298.15 K) [mPa·s]	speed of sound (298.15 K) [m/s]	mass density (298.15 K) [kg/m3]	viscosity (303.15 K) [mPa·s]	speed of sound (303.15 K) [m/s]	mass density (303.15 K) [kg/m3]	viscosity (308.15 K) [mPa·s]	speed of sound (308.15 K) [m/s]	mass density (308.15 K) [kg/m3]	viscosity (313.15 K) [mPa·s]	speed of sound (313.15 K) [m/s]	mass density (313.15 K) [kg/m3]	viscosity (318.15 K) [mPa·s]	speed of sound (318.15 K) [m/s]	mass density (318.15 K) [kg/m3]	viscosity (323.15 K) [mPa·s]	speed of sound (323.15 K) [m/s]	further results
CCCCCC(=O)O.O=C1CCCCCN1 [ε-caprolactam hexanoate]	42 ± 1.2	1472.7 ± 4.2	998.59 ± 3.4	30.85 ± 0.9	1456 ± 4.2	994.69 ± 3.4	23.4 ± 0.68	1439 ± 4.2	990.78 ± 3.3	18.11 ± 0.53	1421.9 ± 4.2	986.88 ± 3.3	14.25 ± 0.42	1404.8 ± 4.2	982.97 ± 3.3	11.59 ± 0.34	1387.8 ± 4.2	979.04 ± 3.3	9.44 ± 0.28	1370.8 ± 4.2	mass density (323.15 K): 975.15 ± 3.2 kg/m3; viscosity (328.15 K): 7.91 ± 0.23 mPa·s; speed of sound (328.15 K): 1353.4 ± 4.2 m/s; mass density (328.15 K): 971.24 ± 3.2 kg/m3; viscosity (333.15 K): 6.64 ± 0.19 mPa·s; speed of sound (333.15 K): 1336.8 ± 4.2 m/s; mass density (333.15 K): 967.34 ± 3.2 kg/m3
CC(=O)O.O=C1CCCN1 [γ-butyrolactam acetate]	9.36 ± 0.24	1514.5 ± 3.2	1099.8 ± 2.3	7.84 ± 0.2	1496.7 ± 3.2	1095.35 ± 2.3	6.66 ± 0.17	1480.9 ± 3.2	1090.91 ± 2.3	5.72 ± 0.15	1464 ± 3.2	1086.47 ± 2.2	4.96 ± 0.13	1447.2 ± 3.2	1082.03 ± 2.2	4.35 ± 0.11	1429.3 ± 3.2	1077.57 ± 2.2	3.83 ± 0.1	1412.5 ± 3.2	mass density (323.15 K): 1073.12 ± 2.2 kg/m3; viscosity (328.15 K): 3.4 ± 0.09 mPa·s; speed of sound (328.15 K): 1395.7 ± 3.2 m/s; mass density (328.15 K): 1068.69 ± 2.2 kg/m3; viscosity (333.15 K): 3.06 ± 0.08 mPa·s; speed of sound (333.15 K): 1379 ± 3.2 m/s; mass density (333.15 K): 1064.24 ± 2.1 kg/m3
O=C1CCCCCN1.O=CO [ε-caprolactam formate]	30.96 ± 0.9	1552 ± 4.2	1087.05 ± 4	23.92 ± 0.7	1536 ± 4.2	1082.87 ± 4	18.86 ± 0.55	1520.2 ± 4.2	1078.69 ± 4	15.14 ± 0.44	1504.4 ± 4.2	1074.51 ± 3.9	12.36 ± 0.36	1488.5 ± 4.2	1070.32 ± 3.9	10.24 ± 0.3	1472.8 ± 4.2	1066.13 ± 3.9	8.59 ± 0.25	1457.9 ± 4.2	mass density (323.15 K): 1061.95 ± 3.9 kg/m3; viscosity (328.15 K): 7.3 ± 0.21 mPa·s; speed of sound (328.15 K): 1441.1 ± 4.2 m/s; mass density (328.15 K): 1057.77 ± 3.8 kg/m3; viscosity (333.15 K): 6.27 ± 0.18 mPa·s; speed of sound (333.15 K): 1425.1 ± 4.2 m/s; mass density (333.15 K): 1053.59 ± 3.8 kg/m3
CC(=O)O.O=C1CCCCCN1 [ε-caprolactam acetate]	39.81 ± 1.2	1523.1 ± 4.2	1060.03 ± 3.8	29.03 ± 0.85	1507 ± 4.2	1055.92 ± 3.8	21.92 ± 0.64	1489.7 ± 4.2	1051.83 ± 3.8	17.03 ± 0.5	1472.8 ± 4.2	1047.74 ± 3.7	13.68 ± 0.4	1456.1 ± 4.2	1043.65 ± 3.7	11.1 ± 0.32	1439.3 ± 4.2	1039.56 ± 3.7	9.19 ± 0.27	1422.6 ± 4.2	mass density (323.15 K): 1035.46 ± 3.6 kg/m3; viscosity (328.15 K): 7.67 ± 0.22 mPa·s; speed of sound (328.15 K): 1406 ± 4.2 m/s; mass density (328.15 K): 1031.37 ± 3.6 kg/m3; viscosity (333.15 K): 6.48 ± 0.19 mPa·s; speed of sound (333.15 K): 1389.5 ± 4.2 m/s; mass density (333.15 K): 1027.28 ± 3.6 kg/m3
O=C1CCCN1.O=CO [γ-butyrolactam formate]	7.17 ± 0.19	1531.2 ± 3.2	1140.78 ± 2.5	6.14 ± 0.16	1515.7 ± 3.2	1136.14 ± 2.5	5.32 ± 0.14	1500 ± 3.2	1131.51 ± 2.5	4.64 ± 0.12	1484.4 ± 3.2	1126.89 ± 2.4	4.09 ± 0.11	1468.5 ± 3.2	1122.25 ± 2.4	3.63 ± 0.09	1452.9 ± 3.2	1117.61 ± 2.4	3.25 ± 0.08	1437.5 ± 3.2	mass density (323.15 K): 1112.99 ± 2.4 kg/m3; viscosity (328.15 K): 2.92 ± 0.08 mPa·s; speed of sound (328.15 K): 1422.1 ± 3.2 m/s; mass density (328.15 K): 1108.35 ± 2.4 kg/m3; viscosity (333.15 K): 2.65 ± 0.07 mPa·s; speed of sound (333.15 K): 1406.8 ± 3.2 m/s; mass density (333.15 K): 1103.72 ± 2.3 kg/m3
CCCCCC(=O)O.O=C1CCCN1 [γ-butyrolactam hexanoate]	14.67 ± 0.43	1429.3 ± 4.2	1018.78 ± 3.5	12.13 ± 0.35	1412.8 ± 4.2	1014.67 ± 3.5	10.16 ± 0.3	1396.2 ± 4.2	1010.57 ± 3.5	8.63 ± 0.25	1379.6 ± 4.2	1006.47 ± 3.4	7.4 ± 0.22	1363.2 ± 4.2	1002.37 ± 3.4	6.42 ± 0.19	1346.9 ± 4.2	998.27 ± 3.4	5.61 ± 0.16	1330.7 ± 4.2	mass density (323.15 K): 994.17 ± 3.4 kg/m3; viscosity (328.15 K): 4.94 ± 0.14 mPa·s; speed of sound (328.15 K): 1314.7 ± 4.2 m/s; mass density (328.15 K): 990.08 ± 3.3 kg/m3; viscosity (333.15 K): 4.39 ± 0.13 mPa·s; speed of sound (333.15 K): 1298.6 ± 4.2 m/s; mass density (333.15 K): 985.98 ± 3.3 kg/m3
